These results are taken from article PMC5785997, “2-Phenylquinazolinones as dual-activity tankyrase-kinase inhibitors” (Scientific Reports, 2018).

The target in one test is ARTD5/TNKS1 (Homo sapiens, UniProt O95271). As to the kind of experiment: NAD+ quantification activity assay, TNKS1. The format is biochemical. The following applies: NAD+ 500 nM. The procedure: (§1) Protein (nM) NAD+ (nM) Incubation Buffer
(§2) Kinase [ATP] Substrate Incubation Reaction buffer

Test [1] concerns Wnt/β-catenin signaling (TCF/LEF Reporter HEK293 Cell Line). The test can be described thus: Wnt signaling TCF/LEF reporter assay in HEK293 cells. Format: cell-based, human. The following applies: Homo sapiens, HEK293, 2 µM compound, Wnt-reporter cell assay; read-out: Wnt (Inh.%, 2 µM). The protocol:
The Wnt assay was performed using a procedure modified from the BPS Bioscience protocol. Details are given in the Supplementary Methods. […]
The Wnt Signaling Pathway TCF/LEF Reporter HEK293 Cell Line (BPS Bioscience, catalog […]
Reporter HEK293 cells were grown at 37 °C with 5% CO2 using Dulbecco's Modified Eagle's Medium (DMEM, Sigma), supplemented with 10% of fetal bovine serum (Lonza), 1% non-essential amino acid (Sigma), 1X of penicillin and streptomycin (Sigma), and 400 µg/ml of Geneticin (Roche). Wnt-3a and L cells (ATCC) were cultured in Dulbecco’s modified Eagle’s medium supplemented with 10% fetal bovine serum, penicillin and streptomycin at 37 °C in a 5%
CO2. Wnt3a and control conditioned medium preparation has been described previously1. The Wnt assay was performed using a procedure modified from the BPS Bioscience protocol. 30,000 HEK293 cells/well in 40 µl of serum-free DMEM were plated on 96-well plate (white wells, clear […]
bottom, PerkinElmer). 10 µl of 50 mM LiCl in serum-free DMEM with 5x concentration of DMSO or tankyrase inhibitors was added. After 16 hours of incubation, 25 µl of Wnt3a or control conditioned medium supplemented with DMSO or tankyrase inhibitors was added on cells and cells were incubated for additional 24 hours. After the second incubation, the 96-well plates were balanced in room temperature for 30 minutes. Wnt3a induced luciferase activity was determined using ONE-Glo Luciferase Assay System (Promega) according to manufacturer’s protocol. […]
Difference Fourier method deriving the starting phases from 3U9H. The refinement of the structures was done with REFMAC5.5,6 Final manual building, analysis and visualization of the structures were made with Coot7 and PyMOL (www.pymol.org). All chemical structures were drawn with Marvin (Marvin 5.7.0 2011, ChemAxon, http://www.chemaxon.com). The docking studies were performed using GOLD software.8
A general note: A reporter such as luciferase makes a cellular process visible.

For the next test, the target named is ARTD2/PARP2 (Homo sapiens, UniProt Q9UGN5). As to the kind of experiment: ARTD profiling, ARTD2.
ARTD2/PARP2, sequence (Q9UGN5 whole entry): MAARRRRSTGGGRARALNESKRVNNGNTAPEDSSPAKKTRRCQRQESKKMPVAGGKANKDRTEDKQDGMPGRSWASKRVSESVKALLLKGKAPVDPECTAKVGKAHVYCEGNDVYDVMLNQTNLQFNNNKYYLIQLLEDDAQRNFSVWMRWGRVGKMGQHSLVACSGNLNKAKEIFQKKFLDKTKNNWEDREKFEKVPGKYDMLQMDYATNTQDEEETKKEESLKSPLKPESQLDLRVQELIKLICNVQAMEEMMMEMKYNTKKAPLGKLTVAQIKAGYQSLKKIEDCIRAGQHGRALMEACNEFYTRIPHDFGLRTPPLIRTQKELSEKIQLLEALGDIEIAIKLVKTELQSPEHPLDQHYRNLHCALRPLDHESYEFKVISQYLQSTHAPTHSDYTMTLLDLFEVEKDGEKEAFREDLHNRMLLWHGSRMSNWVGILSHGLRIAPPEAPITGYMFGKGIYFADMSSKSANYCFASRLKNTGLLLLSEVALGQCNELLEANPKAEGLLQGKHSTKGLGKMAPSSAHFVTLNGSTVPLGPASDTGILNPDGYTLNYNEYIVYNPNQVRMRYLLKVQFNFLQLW
A further test deals with TNKS2 (Homo sapiens, UniProt Q9H2K2). As to the kind of experiment: NAD+ quantification activity assay, TNKS2. Format: biochemical. The protocol:
The activity assay used to measure the potency of the compounds against TNKS2 is based on the quantification of NAD^+[38]. The reactions were carried out in 96-well plate (Greiner bio-one, U-shaped) and the conditions were the same as reported earlier (Table S5)[24].
The compounds were stored in 100% DMSO at −20 °C. All the compounds were diluted in the TNKS2 assay buffer (50 mM Bis-Tris Propane, 0.5 mM TCEP, 0.01% Triton-100x). Control reactions were used to exclude the effect of compound fluorescence and quenching from the calculations. […] The pIC50 values were calculated and fitted with nonlinear regression using 4-parameters with GraphPad Prism (version 5.0 for windows).
as §1, §2

For the next test, the target named is ARTD1/PARP1 (Homo sapiens, UniProt P09874). As to the kind of experiment: ARTD profiling, ARTD1.
ARTD1/PARP1, sequence (P09874 whole entry): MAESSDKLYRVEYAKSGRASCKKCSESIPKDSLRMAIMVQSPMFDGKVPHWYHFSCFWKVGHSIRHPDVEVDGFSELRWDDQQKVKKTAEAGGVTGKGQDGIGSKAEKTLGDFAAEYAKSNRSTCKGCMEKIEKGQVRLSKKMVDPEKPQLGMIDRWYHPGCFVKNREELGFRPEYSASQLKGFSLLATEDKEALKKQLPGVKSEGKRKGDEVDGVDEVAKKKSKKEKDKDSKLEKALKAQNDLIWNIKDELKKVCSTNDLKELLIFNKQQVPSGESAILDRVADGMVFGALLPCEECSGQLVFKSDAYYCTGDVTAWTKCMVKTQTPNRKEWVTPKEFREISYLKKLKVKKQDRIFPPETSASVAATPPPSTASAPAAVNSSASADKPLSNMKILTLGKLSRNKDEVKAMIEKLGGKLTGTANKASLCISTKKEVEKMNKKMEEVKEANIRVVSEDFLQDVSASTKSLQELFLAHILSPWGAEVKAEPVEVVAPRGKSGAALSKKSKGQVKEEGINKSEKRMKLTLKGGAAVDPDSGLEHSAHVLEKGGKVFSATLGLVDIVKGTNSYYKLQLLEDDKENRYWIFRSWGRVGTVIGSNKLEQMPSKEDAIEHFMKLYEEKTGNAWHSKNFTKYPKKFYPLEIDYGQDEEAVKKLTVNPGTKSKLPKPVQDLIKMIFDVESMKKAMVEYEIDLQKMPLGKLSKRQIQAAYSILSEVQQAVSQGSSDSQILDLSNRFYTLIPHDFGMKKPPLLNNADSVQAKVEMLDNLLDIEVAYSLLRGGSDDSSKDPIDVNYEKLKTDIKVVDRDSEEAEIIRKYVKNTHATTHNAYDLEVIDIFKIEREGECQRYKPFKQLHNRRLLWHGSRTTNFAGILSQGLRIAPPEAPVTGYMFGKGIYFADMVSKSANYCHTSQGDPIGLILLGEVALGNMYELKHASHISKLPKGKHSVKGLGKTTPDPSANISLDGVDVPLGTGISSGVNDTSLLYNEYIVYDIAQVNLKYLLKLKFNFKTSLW
For a further test, the target named is p38α (Homo sapiens, UniProt Q16539). As to the kind of experiment: Kinase functional assay (mobility shift), p38α. Format: biochemical. As to conditions: read-out: p38α (% Inhib.).
p38α, sequence (Q16539 whole entry): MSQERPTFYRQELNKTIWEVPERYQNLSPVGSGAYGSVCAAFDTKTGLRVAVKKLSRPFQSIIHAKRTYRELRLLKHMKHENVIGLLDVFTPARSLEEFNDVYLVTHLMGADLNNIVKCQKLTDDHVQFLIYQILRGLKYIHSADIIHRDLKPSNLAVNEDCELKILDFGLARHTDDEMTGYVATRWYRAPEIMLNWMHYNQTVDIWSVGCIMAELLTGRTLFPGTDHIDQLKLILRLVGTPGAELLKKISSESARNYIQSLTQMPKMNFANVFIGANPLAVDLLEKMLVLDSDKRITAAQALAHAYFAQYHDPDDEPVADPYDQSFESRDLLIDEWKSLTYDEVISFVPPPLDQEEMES
The next test deals with CDK9 (Homo sapiens, UniProt P50750). The test can be described thus: Kinase functional assay (mobility shift), CDK9. Format: biochemical.
CDK9, sequence (P50750 whole entry, species assumed): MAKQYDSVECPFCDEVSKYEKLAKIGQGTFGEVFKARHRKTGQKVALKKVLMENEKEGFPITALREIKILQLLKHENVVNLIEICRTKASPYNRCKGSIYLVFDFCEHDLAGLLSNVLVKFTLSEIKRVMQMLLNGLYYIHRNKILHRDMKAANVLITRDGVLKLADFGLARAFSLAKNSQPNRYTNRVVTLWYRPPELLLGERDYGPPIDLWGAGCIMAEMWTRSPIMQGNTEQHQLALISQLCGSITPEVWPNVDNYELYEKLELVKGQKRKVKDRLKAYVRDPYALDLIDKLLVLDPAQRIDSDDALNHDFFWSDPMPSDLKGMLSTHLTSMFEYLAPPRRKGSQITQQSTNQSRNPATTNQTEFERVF
CDK9, sequence (O60563 whole entry partner, species assumed): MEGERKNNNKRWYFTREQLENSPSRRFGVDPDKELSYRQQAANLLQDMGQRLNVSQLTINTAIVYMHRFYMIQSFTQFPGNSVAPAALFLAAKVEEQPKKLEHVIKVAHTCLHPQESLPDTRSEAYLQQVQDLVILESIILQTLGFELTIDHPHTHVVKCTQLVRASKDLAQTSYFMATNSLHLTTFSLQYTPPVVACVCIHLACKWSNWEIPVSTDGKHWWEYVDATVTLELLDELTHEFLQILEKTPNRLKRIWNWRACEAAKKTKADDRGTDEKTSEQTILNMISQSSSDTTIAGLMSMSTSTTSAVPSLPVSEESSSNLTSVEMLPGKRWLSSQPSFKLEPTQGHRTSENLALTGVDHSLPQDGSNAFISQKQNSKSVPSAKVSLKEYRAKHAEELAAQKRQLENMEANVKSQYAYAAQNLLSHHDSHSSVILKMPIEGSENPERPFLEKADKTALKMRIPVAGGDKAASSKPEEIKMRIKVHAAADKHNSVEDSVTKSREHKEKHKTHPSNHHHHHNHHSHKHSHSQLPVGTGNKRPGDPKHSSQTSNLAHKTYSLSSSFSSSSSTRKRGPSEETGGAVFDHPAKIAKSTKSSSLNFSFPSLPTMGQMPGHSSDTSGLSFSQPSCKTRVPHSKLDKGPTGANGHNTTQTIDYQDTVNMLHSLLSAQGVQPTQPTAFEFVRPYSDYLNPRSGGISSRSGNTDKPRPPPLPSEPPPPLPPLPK
For the next test, the target named is ERK2 (Homo sapiens, UniProt P28482). The test can be described thus: Kinase functional assay (mobility shift), ERK2 (p42). The format is biochemical. As to conditions: read-out: ERK2 (% Inhib.).
ERK2, sequence (P28482 whole entry, species assumed): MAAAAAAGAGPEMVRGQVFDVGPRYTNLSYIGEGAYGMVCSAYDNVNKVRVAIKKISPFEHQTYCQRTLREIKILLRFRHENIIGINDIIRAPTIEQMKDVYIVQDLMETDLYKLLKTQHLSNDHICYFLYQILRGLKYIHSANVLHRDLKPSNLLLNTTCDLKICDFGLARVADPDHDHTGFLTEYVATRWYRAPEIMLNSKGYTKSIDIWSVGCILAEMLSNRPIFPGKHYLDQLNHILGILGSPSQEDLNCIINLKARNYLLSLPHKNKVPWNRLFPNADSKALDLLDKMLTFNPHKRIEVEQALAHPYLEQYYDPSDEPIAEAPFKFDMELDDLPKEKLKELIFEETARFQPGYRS
The next test deals with Akt. As to the kind of experiment: Kinase functional assay (mobility shift), Akt. The format is biochemical.
A further test has as its target T1, human CK2α-1 (Homo sapiens, UniProt P68400).
T1 construct: purchased Promega V4,482
The test can be described thus: ADP-Glo kinase assay, CK2. Format: biochemical. As to conditions: read-out: CK2 (% Inhib.). The protocol:
The kinase functional assays were performed using a combination of kinase and 1.5 μM peptide substrate in the presence of ATP. The reaction mixture was analyzed on the Caliper LabChip 3,000 (Caliper, Hopkinton, MA) by the electrophoretic mobility shift of the fluorescent substrate and phosphorylated product. For the inhibition of human CK2α-1, the experiments were carried out with ADP-Glo kinase Assay Kit (Promega V9,101). Assays are described in detail in the Supplementary Methods and Table S6. […]
Dose-response curves were generated to determine the concentration required to inhibit 50% of kinase activity (IC50). Staurosporine (Invitrogen BP2,451) was included as a positive control of each enzymatic assay. The profiling of the kinases was done at 1 and at 10 μM of the compound.
For the inhibition of human CK2α-1, the experiments were carried out in a white 384-microplate low flange (Corning 3,572) with ADP-Glo kinase Assay Kit (Promega V9101) and CK2α-1 Kinase Enzyme System (Promega V4,482). The test compounds and standard staurosporine (Invitrogen BP2451), 25 ng/well CK2α-1 kinase and 50 µM ATP were added in a final volume of 10 µl/well using reaction buffer supplied by kit as assay buffer. The reaction mixture was incubated in gentle shaking for 60 minutes at room temperature. After the incubation 10 µl of ADP-Glo reagent was added and incubated in gentle shaking for 40 minutes at room temperature. Finally 20 µl of Kinase Detection Reagent was added and the plate was incubated on a shaker for 30 minutes at room […]
temperature. […]
In general terms: In ADP-Glo the light output rises with the ADP produced.

Another test concerns the target GSK3β (Homo sapiens, UniProt P49841). As to the kind of experiment: Kinase functional assay (mobility shift), GSK3β. Format: biochemical. As to conditions: read-out: GSK3β (% Inhib.).

TNKS2, sequence (Q9H2K2 959-1164): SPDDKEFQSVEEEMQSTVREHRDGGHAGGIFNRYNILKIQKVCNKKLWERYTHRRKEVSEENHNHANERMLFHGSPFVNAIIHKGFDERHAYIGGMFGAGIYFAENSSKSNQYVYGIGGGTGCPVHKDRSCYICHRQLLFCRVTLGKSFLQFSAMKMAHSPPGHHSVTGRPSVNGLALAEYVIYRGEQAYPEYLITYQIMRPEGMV
T1 sequence (P68400 whole entry): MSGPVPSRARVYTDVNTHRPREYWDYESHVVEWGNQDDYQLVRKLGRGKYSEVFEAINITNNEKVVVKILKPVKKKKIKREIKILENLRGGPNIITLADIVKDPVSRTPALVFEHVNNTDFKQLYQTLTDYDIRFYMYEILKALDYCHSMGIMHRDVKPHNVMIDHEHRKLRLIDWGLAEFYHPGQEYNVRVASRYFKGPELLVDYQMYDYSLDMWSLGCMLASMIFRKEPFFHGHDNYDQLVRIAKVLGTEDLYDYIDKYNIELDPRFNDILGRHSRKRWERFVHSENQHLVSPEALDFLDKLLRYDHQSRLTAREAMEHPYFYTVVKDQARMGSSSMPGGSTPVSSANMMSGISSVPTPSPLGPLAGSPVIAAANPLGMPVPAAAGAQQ
GSK3β, sequence (P49841 whole entry, species assumed): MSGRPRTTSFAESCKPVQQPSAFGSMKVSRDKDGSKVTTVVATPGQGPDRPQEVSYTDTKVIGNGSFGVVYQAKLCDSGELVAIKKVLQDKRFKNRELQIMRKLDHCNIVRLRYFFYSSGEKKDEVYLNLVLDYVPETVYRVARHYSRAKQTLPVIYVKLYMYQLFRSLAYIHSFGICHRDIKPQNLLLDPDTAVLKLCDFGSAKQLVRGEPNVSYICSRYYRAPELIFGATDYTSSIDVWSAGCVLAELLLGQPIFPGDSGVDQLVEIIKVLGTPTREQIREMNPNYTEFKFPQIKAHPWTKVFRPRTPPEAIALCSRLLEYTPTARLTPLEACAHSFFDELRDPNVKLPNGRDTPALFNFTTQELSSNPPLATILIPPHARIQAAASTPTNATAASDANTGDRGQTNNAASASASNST
ARTD5/TNKS1, sequence (O95271 1112-1317): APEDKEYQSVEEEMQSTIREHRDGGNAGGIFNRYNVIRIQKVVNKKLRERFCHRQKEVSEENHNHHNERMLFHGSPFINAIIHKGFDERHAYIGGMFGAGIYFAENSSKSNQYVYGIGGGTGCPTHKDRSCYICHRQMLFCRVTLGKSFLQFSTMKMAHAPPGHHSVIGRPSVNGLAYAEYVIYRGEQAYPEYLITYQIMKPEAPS

As a reminder, the IC50 is the midpoint of a concentration-inhibition curve. For the compound `CC1(c2ccc(-c3nc4ccccc4c(=O)[nH]3)cc2)CNC(=O)N1` (centres unmarked) [Compound 9], the IC50 against ARTD5/TNKS1 was determined as 10 nM; against ARTD2/PARP2, 870 nM; at TNKS2 (TNKS2 IC50, NAD+ 500 nM), 10 nM; against ARTD1/PARP1 it was 1000 nM. Moreover, in [1], the inhibition at 2 µM turned out to be 72%.
With `Nc1ccc(-c2nc3cc(Cl)ccc3c(=O)[nH]2)cc1` [Compound 42], the inhibition at 1 µM on p38α (1 µM compound, Table S3) amounted to 5 ± 1%; at CDK9 (1 µM compound, Table S3, read-out: CDK9 (% Inhib.)) it was 17 ± 5%; on ERK2 (1 µM compound, Table S3) it was 14 ± 1%; at human CK2α-1 (1 µM compound, Table S3), 1 ± 1%; on GSK3β (1 µM compound, Table S3), 4 ± 1%. Besides, the inhibition at 10 µM was determined as 45 ± 1% on p38α (10 µM compound, Table S4); 78 ± 2% at CDK9 (10 µM compound, Table S4, read-out: CDK9 (% Inhib.)); 51 ± 1% at ERK2 (10 µM compound, Table S4); 2 ± 2% at human CK2α-1 (10 µM compound, Table S4); 41 ± 1% on GSK3β (10 µM compound, Table S4). For the same compound, the IC50 turned out to be 3400 nM on CDK9 (dose response, read-out: CDK9 IC50); 1600 nM on Akt (dose response); 1050 nM against TNKS2 (TNKS2 IC50, NAD+ 500 nM); 1100 nM on TNKS2 (TNKS2 IC50, as quoted in text). Besides, in the test with Akt (10 µM compound, Table S4), the “AKT (% Inhib.)” value is 89 ± 1%.
